Assay results reported in ChEMBL document CHEMBL5500363, “Discovery of novel ocotillol derivatives modulating glucocorticoid receptor/NF-κB signaling for the treatment of sepsis” (Eur J Med Chem, 2024).
Calls of active or inactive are those of the source. No cut-off for these calls is given here.

Columns and labels:
[1] = Cytotoxicity against mouse RAW264.7 cells assessed as cell viability at 40 uM incubated for 24 hrs by MTT assay relative to control; format: toxicity, cell-based; settings: read-out: Activity
RAW264.7 [2] = experiment: Inhibition of LPS-induced NO production in mouse RAW264.7 cells at 20 uM pretreated for 2 hrs followed by LPS stimulation for 24 hrs by Griess assay relative to control; format: functional; settings: time 26 hrs
RAW264.7 [3] = experiment: Anti-inflammatory activity in mouse RAW264.7 cells assessed as inhibition of LPS-induced TNF-alpha production pretreated for 2 hrs followed by LPS stimulation for 24 hrs by ELISA; format: functional, cell-based; settings: dose 5-20 µM, time 26.0 hrs
[4] = biological target: T1, Glucocorticoid receptor (Mus musculus) (UniProt P06537); experiment: Binding affinity to glucocorticoid receptor in mouse RAW264.7 cells assessed as increase in thermal stability at 47 degreeC pretreated for 24 hrs followed by heat exposure for 3 mins and subsequently incubated at room temperature for 3 mins by CETSA; format: cell-based; settings: dose 2.5-40 µM, time 1446.0 min
T1 sequence (whole entry): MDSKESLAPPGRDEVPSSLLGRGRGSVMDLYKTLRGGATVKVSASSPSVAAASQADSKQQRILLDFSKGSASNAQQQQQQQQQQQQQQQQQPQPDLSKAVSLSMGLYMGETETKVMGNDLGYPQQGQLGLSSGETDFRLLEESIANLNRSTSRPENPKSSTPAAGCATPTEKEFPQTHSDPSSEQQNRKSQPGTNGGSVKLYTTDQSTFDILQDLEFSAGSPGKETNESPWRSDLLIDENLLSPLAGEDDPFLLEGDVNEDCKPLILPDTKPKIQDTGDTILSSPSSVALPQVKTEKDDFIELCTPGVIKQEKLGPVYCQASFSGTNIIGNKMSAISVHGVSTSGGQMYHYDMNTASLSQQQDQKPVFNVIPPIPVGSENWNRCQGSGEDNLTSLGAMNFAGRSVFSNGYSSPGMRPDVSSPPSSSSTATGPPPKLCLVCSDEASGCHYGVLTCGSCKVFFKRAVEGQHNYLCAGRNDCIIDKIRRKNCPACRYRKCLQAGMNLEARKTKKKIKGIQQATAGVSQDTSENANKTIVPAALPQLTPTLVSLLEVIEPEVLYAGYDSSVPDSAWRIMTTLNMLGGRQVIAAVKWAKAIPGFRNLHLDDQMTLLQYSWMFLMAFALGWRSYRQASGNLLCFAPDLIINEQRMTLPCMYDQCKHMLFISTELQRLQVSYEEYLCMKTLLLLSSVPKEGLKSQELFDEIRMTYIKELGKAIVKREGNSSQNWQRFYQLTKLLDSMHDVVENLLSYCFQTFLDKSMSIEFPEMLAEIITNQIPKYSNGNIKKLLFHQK

RAW264.7 [5] = experiment: Upregulation of glucocorticoid receptor mRNA expression in LPS-treated mouse RAW264.7 cells incubated for 24 hrs by qRT-PCR analysis; format: functional, cell-based
Mus musculus [6] = experiment: Upregulation of glucocorticoid receptor expression in liver of LPS-induced sepsis BALB/c mouse model at 7.5 to 30 mg/kg administered via gavage for 3 days followed by LPS treatment for 6 hrs by Western blot analysis; format: functional, organism-based; settings: dose 7.5-30 mg/kg, time 78.0 hrs
RAW264.7 [7] = experiment: Anti-inflammatory activity in LPS-treated mouse RAW264.7 cells assessed as reversal of nuclear translocation of p65 at 20 uM pretreated for 2 hrs followed by LPS stimulation for 24 hrs by immunofluorescence analysis; format: functional, cell-based; settings: time 26.0 hrs
Mus musculus [8] = experiment: Anti-septic activity in LPS-induced sepsis BALB/c mouse assessed as reduction in serum IL-6 level at 7.5 to 30 mg/kg administered via gavage for 3 days followed by LPS treatment for 6 hrs by ELISA; format: functional, organism-based; settings: dose 7.5-30 mg/kg, time 78.0 hrs
Mus musculus [9] = experiment: Anti-septic activity in LPS-induced sepsis BALB/c mouse assessed as reduction in hepatic hemorrhage at 7.5 to 30 mg/kg administered via gavage for 3 days followed by LPS treatment for 6 hrs by H and E staining based analysis; format: functional, organism-based; settings: dose 7.5-30 mg/kg, time 78.0 hrs

CC(C)(C)OC(=O)CCC(=O)Nc1nc2c(s1)C[C@]1(C)[C@H]3C[C@@H](O)[C@@H]4C([C@]5(C)CC[C@@H](C(C)(C)O)O5)CC[C@@]4(C)[C@]3(C)CC[C@H]1C2(C)C (some centres undefined)
viability at 24 h, 40 µM [1]: > 90%
inhibition at 20 µM (RAW264.7 [2]): 86%
inhibition (RAW264.7 [3]): Dose-Dependent Effect
Activity [4]: Dose-Dependent Effect
Activity (RAW264.7 [5]): Active
Activity (Mus musculus [6]): Active
Activity (RAW264.7 [7]): Active
Activity (Mus musculus [8]): Active
Activity (Mus musculus [9]): Active
